Experimental data: patent publication US20240027453A1, “METHOD FOR DETECTION AND QUANTITATIVE MONITORING OF INFECTIONS WITH HERPESVIRUSES” (The Trustees of Princeton University, priority 2020, published 2024)
Like-named read-outs stand apart in the source and are kept apart here.

Test system: HCMV
Format: cell-based
Settings: FIG. 7A
Method: In example herpesvirus PRM assay methods shown herein, cell pellets were lysed in 2% SDS, 100 mM NaCl, 0.5 mM EDTA, 50 mM Tris, pH 8.2, and 50 μg of protein was reduced and alkylated with 25 mM TCEP and 50 mM CAM respectively for 20 min at 70° C. Proteins were then precipitated via methanol chloroform precipitation (Wessel & Flugg, Anal Biochem. 138(1):141-143, 1984), resuspended in 50 mM HEPES, pH 8.2 and digested overnight with trypsin (50:1 protein:enzyme w/w ratio). Digested peptides were desalted by SDB-RPS StageTip as previously described (Lum et al., Cell Syst., 7(6):[…], 2018; Greco et al., Methods Mol Biol 1410:39-63, 2016; Federspiel & Cristea, Methods Mol Biol., 1977:115-143, 2019).
Peptides (1.0 μg on column) were analyzed by LC-MS/MS using a Dionex Ultimate 3000 UHPLC coupled online to an EASYSpray ion source and a Q Exactive HF. Peptides were separated on an EASYSpray C18 column (75 μm×25 cm) heated to 50° C. using a linear gradient of 5% B to 32% B over 60 min at a flow rate of 250 nL/min and were ionized at 1.7 kv. Mobile phase A consisted of 0.1% FA in H2O and mobile phase B consisted of 0.1% FA, 2.9% H2O in ACN.
The PRM method was controlled by a peptide inclusion list with retention time windows of 6 min for selected precursor ions.
The PRM assay was developed and analyzed using the open-source software Skyline (Maclean et al., Bioinformatics 26(7):966-968, 2010). Summed area under the curve of 3-4 transitions per peptide was used for quantitation. Targeted peptides were normalized to host protein loading control peptides. Peptide values for each sample were scaled to the average of each peptide across all runs. The average of multiple peptides was used as the inferred value for the protein measurement when more than one peptide was quantified (Federspiel et al., PLoS Biol. 17(9):e3000437. Doi: 10.1371/journal.pbio.3000437). PRM quantitation data were graphed using the Python Seaborn and Matplotlib libraries.
MRC5 primary human fibroblasts (HFs) (ATCC CCL-171) were used as the model system for HSV-1 and HCMV infections and were cultured in complete growth medium (DMEM supplemented with 10% fetal bovine serum and 1% penicillin-streptomycin antibiotics) at 37° C. and 5% CO2. iSLK.219 cells harboring latent KSHV (a gift from Dr. Britt Glaunsinger, University of California, Berkeley) were grown in complete growth medium supplemented with 500 μg/ml hygromycin (ThermoFisher Scientific, 10687010) at 37° C. and 5% CO2. All cells were used for experiments within a maximum of 10 passages.
Wild type HSV-1 strain 17+ (a gift from Beate Sodeik, Hannover Medical School, Hannover, Germany) was propagated as previously described (Diner et al., 2015). Briefly, PO stocks were generated by electroporating pBAC-HSV-1 into U-2 OS cells. […] In a similar manner, wild type HCMV strain AD169 was produced from BAC electroporation into HFs and working stocks were propagated by infecting HFs at a low level. In both cases, cell-associated virus was released by sonication, combined with supernatant virus, then concentrated by ultracentrifugation (20,000 rpm, 2 hours, 4° C. with SW28 swinging bucket rotor [Beckman Coulter]) over a 10% ficoll (HSV-1) or 20% sorbitol (HCMV) cushion. Virus stock titers were determined by plaque assay for HSV-1 or tissue culture infectious dose (TCID50) for HCMV and infections were performed at a multiplicity of infection (MOI) of 3.
12 hours prior to virus infection or reactivation, cells were treated with either the small molecule drug or DMSO/PBS control at an equivalent volume. […] For infection cycles lasting longer than 24 hours, small molecule drugs were re-added to the cell culture medium every 24 hours. Upon collection, cells were rinsed with PBS, scraped into a microcentrifuge tube, pelleted by centrifugation, and rinsed again with PBS.

Oc1ccc(C=Cc2cc(O)cc(O)c2)cc1 [Resveratrol]
UL122 (P19893) protein level (timepoint 48, IE): 0.07155
UL123 (P13202) protein level (timepoint 48, IE): 0.9494
CVC1 (P16799) protein level (timepoint 48, L): 0.3339
GO (P16750) protein level (timepoint 48, L): 0.02075
IR11 (P16809) protein level (timepoint 48, L): 0.3219
MCP (P16729) protein level (timepoint 48, L): 0.008603
SCP (Q7M6N6) protein level (timepoint 48, L): 0.008886
TRM2 (P16792) protein level (timepoint 48, L): 0.03458
UL22A (P16845) protein level (timepoint 48, L): 0.2188
UL25 (P16761) protein level (timepoint 48, L): 0.07603
UL29 (P16764) protein level (timepoint 48, L): 0.5648
UL30 (P16765) protein level (timepoint 48, L): 0.14
UL31 (P16848) protein level (timepoint 48, L): 0.3217
UL43 (P16781) protein level (timepoint 48, L): 0.06887
UL52 (P16793) protein level (timepoint 48, L): 0.09774
UL80 (P16753) protein level (timepoint 48, L): 0.04182
UL82 (P06726) protein level (timepoint 48, L): 0.2191
UL88 (P16731) protein level (timepoint 48, L): 0.09401
UL94 (P16800) protein level (timepoint 48, L): 0.1811
UL99 (P13200) protein level (timepoint 48, L): 0.09897
UL103 (P16734) protein level (timepoint 48, L): 0.1489
UL117 (P16770) protein level (timepoint 48, L): 0.4909
gL (P16832) protein level (timepoint 48, L): 0.05817
gM (P16733) protein level (timepoint 48, L): 0.04711
gN (P16795) protein level (timepoint 48, L): 0.08482
DUT (P16824) protein level (timepoint 48, LL): 0.2262
IR12 (P16810) protein level (timepoint 48, LL): 0.2614
TRM3 (P16732) protein level (timepoint 48, LL): 0.02426
TRX1 (P16783) protein level (timepoint 48, LL): 0.01259
TRX2 (P16728) protein level (timepoint 48, LL): 0.01003
UL24 (P16760) protein level (timepoint 48, LL): 0.1046
UL40 (P16780) protein level (timepoint 48, LL): 1.098
UL47 (P16784) protein level (timepoint 48, LL): 0.04257
UL49 (P16786) protein level (timepoint 48, LL): 0.91
UL69 (P16749) protein level (timepoint 48, LL): 0.3024
UL70 (P17149) protein level (timepoint 48, LL): 0.5546
UL83 (P06725) protein level (timepoint 48, LL): 0.03671
UL132 (P69338) protein level (timepoint 48, LL): 0.2027
US15 (P09718) protein level (timepoint 48, LL): 1.334
CVC2 (P16726) protein level (timepoint 72, DE): 0.05308
DBP (P17147) protein level (timepoint 72, DE): 0.2031
HELI (P16736) protein level (timepoint 72, DE): 0.7626
IR01 (P09710) protein level (timepoint 72, DE): 0.4495
NEC2 (P16791) protein level (timepoint 72, DE): 0.231
RIR1 (P16782) protein level (timepoint 72, DE): 0.1696
TRM1 (P16724) protein level (timepoint 72, DE): 0.1736
UL4 (P17146) protein level (timepoint 72, DE): 0.1863
UL26 (P16762) protein level (timepoint 72, DE): 0.087
UL32 (P08318) protein level (timepoint 72, DE): 0.09834
UL34 (P16812) protein level (timepoint 72, DE): 0.1945
UL35 (P16766) protein level (timepoint 72, DE): 0.0668
UL38 (P16779) protein level (timepoint 72, DE): 0.6571
UL44 (P16790) protein level (timepoint 72, DE): 0.1077
UL48 (P16785) protein level (timepoint 72, DE): 0.0769
UL54 (P08546) protein level (timepoint 72, DE): 0.8921
UL71 (P16823) protein level (timepoint 72, DE): 0.4201
UL78 (P16751) protein level (timepoint 72, DE): 0.4371
UL84 (P16727) protein level (timepoint 72, DE): 0.1807
UL95 (P16801) protein level (timepoint 72, DE): 0.4887
UL96 (P16787) protein level (timepoint 72, DE): 0.2804
UL97 (P16788) protein level (timepoint 72, DE): 0.2884
UL98 (P16789) protein level (timepoint 72, DE): 0.2614
UL102 (P16827) protein level (timepoint 72, DE): 1.1
UL104 (P16735) protein level (timepoint 72, DE): 0.1108
UL112/UL113 (P17151) protein level (timepoint 72, DE): 0.3912
UL114 (P16769) protein level (timepoint 72, DE): 1.097
UL119/UL118 (P16739) protein level (timepoint 72, DE): 0.2241
UL128 (P16837) protein level (timepoint 72, DE): 0.03713
US8 (P09730) protein level (timepoint 72, DE): 1.041
US9 (P09729) protein level (timepoint 72, DE): 1.966
US12 (P09721) protein level (timepoint 72, DE): 0.2709
US13 (P09720) protein level (timepoint 72, DE): 0.5064
US14 (P09719) protein level (timepoint 72, DE): 0.1413
US22 (P09722) protein level (timepoint 72, DE): 0.5654
US23 (P09701) protein level (timepoint 72, DE): 0.5216
US24 (P09700) protein level (timepoint 72, DE): 0.3422
gB (P06473) protein level (timepoint 72, DE): 0.2078
IRS1 (P09715) protein level (timepoint 72, IE): 1.155
TRS1 (P09695) protein level (timepoint 72, IE): 1.081
UL13 (P16755) protein level (timepoint 72, IE): 0.4777
UL36 (P16767) protein level (timepoint 72, IE): 0.8125
UL37 (P16778) protein level (timepoint 72, IE): 0.998
UL122 (P19893) protein level (timepoint 72, IE): 0.0988
UL123 (P13202) protein level (timepoint 72, IE): 0.8573
CVC1 (P16799) protein level (timepoint 72, L): 0.4295
GO (P16750) protein level (timepoint 72, L): 0.03881
IR11 (P16809) protein level (timepoint 72, L): 0.253
MCP (P16729) protein level (timepoint 72, L): 0.01144
SCP (Q7M6N6) protein level (timepoint 72, L): 0.004632
TRM2 (P16792) protein level (timepoint 72, L): 0.02287
UL22A (P16845) protein level (timepoint 72, L): 0.2623
UL25 (P16761) protein level (timepoint 72, L): 0.1265
UL29 (P16764) protein level (timepoint 72, L): 0.4756
UL30 (P16765) protein level (timepoint 72, L): 0.1344
UL31 (P16848) protein level (timepoint 72, L): 0.3595
UL43 (P16781) protein level (timepoint 72, L): 0.07284
UL52 (P16793) protein level (timepoint 72, L): 0.1143
UL76 (P16725) protein level (timepoint 72, L): 0.0261
UL80 (P16753) protein level (timepoint 72, L): 0.05404
UL82 (P06726) protein level (timepoint 72, L): 0.2813
UL87 (P16730) protein level (timepoint 72, L): 0.03862
UL88 (P16731) protein level (timepoint 72, L): 0.1555
UL94 (P16800) protein level (timepoint 72, L): 0.2402
UL99 (P13200) protein level (timepoint 72, L): 0.1374
UL103 (P16734) protein level (timepoint 72, L): 0.1294
UL117 (P16770) protein level (timepoint 72, L): 0.3032
gH (P12824) protein level (timepoint 72, L): 0.1717
gL (P16832) protein level (timepoint 72, L): 0.07772
gM (P16733) protein level (timepoint 72, L): 0.06954
gN (P16795) protein level (timepoint 72, L): 0.07119
IR12 (P16810) protein level (timepoint 72, LL): 0.182
TRM3 (P16732) protein level (timepoint 72, LL): 0.02749
TRX1 (P16783) protein level (timepoint 72, LL): 0.01995
TRX2 (P16728) protein level (timepoint 72, LL): 0.01998
UL24 (P16760) protein level (timepoint 72, LL): 0.1072
UL40 (P16780) protein level (timepoint 72, LL): 0.6851
UL47 (P16784) protein level (timepoint 72, LL): 0.08828
UL49 (P16786) protein level (timepoint 72, LL): 1.209
UL69 (P16749) protein level (timepoint 72, LL): 0.3758
UL70 (P17149) protein level (timepoint 72, LL): 0.682
UL83 (P06725) protein level (timepoint 72, LL): 0.03846
UL132 (P69338) protein level (timepoint 72, LL): 0.215
US15 (P09718) protein level (timepoint 72, LL): 0.6869
